Results: PMC6430037 (Heliyon, 2019)
“Also recorded” adds a separate entry of the source. Where two headings read alike, the source gives them in different places.

Assays:
[1] = tested on: mice; conditions: cited from earlier work
[2] = tested on: mice; conditions: cited from earlier work; remark: listed apart in the source
[3] = biological target: T1, 5-HT1A receptor (Rattus norvegicus, UniProt P19327); assay: [3H]-8-OH-DPAT radioligand binding assay; conditions: for inhibition at 300 µM: read-out: 5-HT1A Binding Inhibition (%) [300 μM]
T1 sequence (P19327 1-422): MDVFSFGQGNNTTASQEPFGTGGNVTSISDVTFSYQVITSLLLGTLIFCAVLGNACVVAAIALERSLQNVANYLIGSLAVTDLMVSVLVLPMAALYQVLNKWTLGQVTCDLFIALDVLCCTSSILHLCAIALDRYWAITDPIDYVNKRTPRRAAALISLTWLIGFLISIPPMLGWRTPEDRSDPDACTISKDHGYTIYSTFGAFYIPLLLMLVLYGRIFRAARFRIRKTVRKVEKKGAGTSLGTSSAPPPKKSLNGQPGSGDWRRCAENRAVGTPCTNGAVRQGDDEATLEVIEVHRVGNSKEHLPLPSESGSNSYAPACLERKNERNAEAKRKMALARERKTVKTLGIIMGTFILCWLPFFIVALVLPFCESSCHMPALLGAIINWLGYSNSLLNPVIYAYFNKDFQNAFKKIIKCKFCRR

[4] = biological target: T2, μ-opioid receptor (Rattus norvegicus, UniProt P33535); assay: [3H]-DAMGO radioligand binding assay; conditions: for inhibition at 300 µM: read-out: μ-opioid Binding inhibition (%) [300 μM]
[5] = tested on: hMAO B; conditions: read-out: IC50 hMAO B; cited from earlier work
[6] = tested on: hMAO A; conditions: cited from earlier work
[7] = tested on: SH-SY5Y cells; assay: Cell viability assay; format: cell-based, human; conditions: 48 h, SH-SY5Y
[8] = Cell viability assay; format: cell-based, human; conditions: human, SH-SY5Y cells
[9] = tested on: BDZ-bs of the GABAA receptor; assay: [3H]-FNZ radioligand binding assay; conditions: [3H]-FNZ displacement, compound at 300 μM, rat cerebral cortex membranes
[10] = biological target: T2, μ-opioid receptor; conditions: read-out: μ-opioid Ki; [3H]-DAMGO, rat forebrain membranes; cited from earlier work
[11] = tested on: mice; assay: Spontaneous locomotor activity; format: in vivo; conditions: 5 min counts
[12] = PAMPA-BBB permeability assay; format: in vitro ADME; conditions: for Papp at 16 h, 50 µM: PAMPA, pH 7.4; for BBB penetration estimation Prediction: PAMPA-BBB binning by -logPe
[13] = tested on: mice; assay: Tail suspension test; format: in vivo; conditions: 30 min before
[14] = tested on: mice; assay: Hot plate test; format: in vivo; conditions: 30 mg/kg i.p., plate 52.5 °C
[15] = tested on: mice; assay: Acetic acid induced writhing test; format: in vivo
[16] = tested on: mice; assay: Rotarod; format: in vivo; conditions: 30 mg/kg i.p., cut-off 120 s
[17] = tested on: rats; conditions: cited from earlier work
[18] = biological target: benzodiazepine binding site (BDZ-bs) of the GABAA receptor; conditions: read-out: Ki for the BDZ-bs of the GABAA receptor; cited from earlier work

T2 sequence (P33535 whole entry): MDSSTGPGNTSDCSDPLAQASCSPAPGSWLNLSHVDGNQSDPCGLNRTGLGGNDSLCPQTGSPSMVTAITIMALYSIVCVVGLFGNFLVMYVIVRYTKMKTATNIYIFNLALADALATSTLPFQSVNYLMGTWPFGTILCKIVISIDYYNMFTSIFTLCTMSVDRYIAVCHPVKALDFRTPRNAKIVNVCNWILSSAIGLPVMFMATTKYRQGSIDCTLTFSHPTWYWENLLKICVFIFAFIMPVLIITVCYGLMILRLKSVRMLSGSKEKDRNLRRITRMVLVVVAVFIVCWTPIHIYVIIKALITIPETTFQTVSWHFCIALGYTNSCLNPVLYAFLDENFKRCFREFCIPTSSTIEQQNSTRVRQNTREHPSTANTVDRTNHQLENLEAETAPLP

## O=C(/C=C/c1cccc(Br)c1)c1ccc(O)cc1O [3-bromo-2′,4′-dihydroxychalcone]
[1]
  lethality in the yohimbine-induced mortality test: enhanced the mouse lethality
[2]
  head-twitches in the 5-HT induced head-twitch test: significantly increased head-twitches

## O=C(/C=C/c1ccccc1)c1ccccc1 [Compound 1, Chalcone]
[3]
  Ki: 20.8 ± 1.5 µM
  inhibition at 300 µM: 60 to 90%
[4]
  inhibition at 300 µM: 60 to 90%
[5]
  IC50: 1.41 ± 0.07 µM
[6]
  effect on hMAO A: no effect
[7]
  concentration up to which cell viability was not affected: 75 µM
[8]
  viability at 48 h, 20 µM: 95.9%
[9]
  BDZ-bs Binding inhibition (%) [300 μM]: ++++ (inhibition >90% (++++))
[10]
  Ki: 28.2 ± 9.9 µM
[11]; 30 mg/kg i.p.
  spontaneous locomotor activity vs VEH: significant increase
[12]
  Papp at 16 h, 50 µM: 26.3 ×10⁻⁶ cm/s
  BBB penetration estimation Prediction: CNS+ (CNS+, -logPe < 5.6, high permeability)
[13]; 10 mg/kg i.p.
  immobility time vs VEH: significantly reduced
[13]; 30 mg/kg i.p.
  immobility time vs VEH: significantly reduced

## Cc1cc(C(=O)/C=C/c2ccccc2)c(O)c([N+](=O)[O-])c1 [Compound 12, (2E)-1-(5-methyl-3-nitro-2-hydroxyphenyl)-3-phenyl-2-propen-1-one]
[3]
  inhibition at 300 µM: < 20%
[4]
  inhibition at 300 µM: > 90%
[4]; μ-opioid Ki, [3H]-DAMGO, rat forebrain membranes, Ki ± SEM, 2 determinations
  Ki: 10.8 ± 3.6 µM
[8]
  viability at 48 h, 20 µM: 74.8%
[9]
  BDZ-bs Binding inhibition (%) [300 μM]: + (inhibition 20–40% (+))
[14]
  reaction (latency) time against thermal stimulus vs VEH: significant increases; also recorded: significantly increased
[11]; 10 and 30 mg/kg i.p.
  spontaneous locomotor activity vs VEH: None of the mice treated with chalcone 12 showed any failure in their locomotion
[12]
  Papp at 16 h, 50 µM: 33.9 ×10⁻⁶ cm/s
  BBB penetration estimation Prediction: CNS+ (CNS+, -logPe < 5.6, high permeability)
[15]; 3 mg/kg i.p.
  inhibition of constrictions compared to VEH: 59.7%
[15]; 10 mg/kg i.p.
  inhibition of constrictions compared to VEH: 62.6%
[15]; 10 mg/kg i.p., acetic acid 0.75%
  number of writhes vs VEH: significantly reduced
[15]; 30 mg/kg i.p.
  inhibition of constrictions compared to VEH: 96.1%
[16]
  balance on the Rotarod: did not produce neurotoxicity or motor impairment

## O=C(/C=C/c1ccc(O)cc1)c1ccc(O)cc1O [isoliquiritigenin, 2′,4′,4-trihydroxychalcone]
[17]
  effect in the plus-maze test: anxiolytic-like effect
[18]
  Ki: 0.45 µM
